Data as given in US20260137700A1, “PHARMACEUTICAL COMBINATION OF PRMT5 INHIBITOR AND DNA DAMAGE-INDUCING SUBSTANCE” (SK Biopharmaceuticals Co., Ltd., priority 2022, published 2026).

Tests used:
[1] = test system: cancer cell lines of Table 2 (A549, A549/CR, A549/PR, CAPAN-1, NCI-H1048, MDA-MB-231, Mia PaCa-2, SNU-324, OVCAR3, PA-1, PANC-1, U-87 MG); assay: Cell viability assay (WST) with combination synergy analysis (Bliss score); type: cell-based, human; details: combination with various DNA damage inducers, FIGS. 1 to 25; culture ended on days 7 to 9
Method: Most cell lines were obtained from the American Type Culture Collection (ATCC) or the Korean Cell Line Bank (KCLB). Combination experiments in cisplatin-resistant and paclitaxel-resistant cell lines were performed at the Asan Preclinical Evaluation center for cancer therapeutiX of Asan Medical Center, Seoul. All cell lines were maintained in appropriate growth medium for the cell line in 100-pi dishes oRT75 (75 cm2) flasks, cultured at 37° C. with 5% CO2, and passaged every 3-4 days. Growth medium conditions and cell line information are listed in Table 2, and the cells were counted using Countess (Invitrogen) to obtain the number of viable cells. Mutation and HRD status by cell type are described in Table 3.
The next day, compound-87 was diluted 1/2 to 1/4 to a concentration of 20 μM to 0.002 μM and treated at a set concentration range, and the co-administered drug was diluted 1/2 to 1/3 to a concentration of 100 μM to 0.00046 μM and treated at a 1:1 (v/v) ratio. Finally, the treatment ratio of compound-87 and the co-administered substance was between 1:20000 and 1:0.00015, and in clinical practice, compound-87: drug to be co-administered can be treated at a ratio of 1:10000 to 1:0.0001.
PANC-1 (wild-type BRCA1/BRCA2) pancreatic cancer cells were treated with compound-87 at concentrations of […], and E7016, a PARP inhibitor as a co-administered agent at concentration of 0.078, 0.156, 0.313, 0.625, 1.25, 2.5, 5, or 10 μM (FIG. 25). Cell culture was terminated on days 7 to 9, and cell viability and synergistic effect were evaluated for each combination of concentrations.
Cell viability was measured by a colorimetric assay using water-soluble tetrazolium salt (WST). […]
Results are normalized to DMSO-treated groups as 100% and expressed as the percent of viable cells upon compound addition. […]
The synergy of each compound was analyzed using Combenefit software (Cambridge Research UK, Cambridge Institute, University of Cambridge, United Kingdom), and synergy was evaluated by using Blliss (Ref: Di Veroli et al., 2016, Bioinformatics 32(18):2866-2868). […]

[2] = test system: human small cell lung cancer cells NCI-H1048; assay: Subcutaneous xenograft mouse model of NCI-H1048 small cell lung cancer cells, tumor growth inhibition; type: in vivo; details: day 23
Method: For in vivo efficacy study in a subcutaneous xenograft mouse model of human small cell lung cancer cells NCI-H1048, co-administration of compound-87 as a PRMT5 inhibitor according to an example of the present invention and cisplatin as an alkylating agent of a chemotherapeutic agent, was performed. To produce a small cell lung cancer xenograft model, 10 million of NCI-H1048 cells were injected subcutaneously into the right flank of female nude mice, and tumor growth was monitored.
To evaluate the anticancer effect, when the tumor volume reached approximately 162 mm^3 on average, the mice were divided into four groups. The all group included a solvent-treated group (Vehicle 1 (Compound-87)+Vehicle 2 (cisplatin) group), a Compound-87 monotherapy group (50 mg/kg), a cisplatin monotherapy group (4 mg/kg), and combination therapy group of Compound-87 and cisplatin. The Compound-87 treatment group was administered orally on a 3-day administration/4-day non-administration schedule, and cisplatin was administered intraperitoneally once a week for 22 days (Day 1-Day 23). All mice were euthanized on Day 22 (Day 23).

[3] = test system: symmetric dimethyl arginine (SDMA); assay: In vivo target inhibition: SDMA ELISA in tumor samples of the Mia PaCa-2 xenograft mouse model
Method: Quantitative reduction levels of symmetric dimethyl arginine (SDMA) in tumor samples harvested from a subcutaneous xenograft mouse model of Mia PaCa-2 were measured by enzyme-linked immunosorbent assay (ELISA).
Reagents: Bradford solution (catalog no. 500-0006) was purchased from Bio-rad (USA). SDMA antibody (catalog no. 13222s) was purchased from Cell signaling Technology (USA). SmD3 antibody (catalog no. ap12451a) was purchased from Abgent (USA). Secondary antibody (catalog no. ab6721) and TMB substrate (catalog no. ab210902) were purchased from Abcam (UK).
Experimental procedure: Tumor tissue transplanted into mice was extracted, cells were lysed, and quantified with Bradford solution. […] of protein per sample was diluted with carbonate-bicarbonate buffer, dispensed into a 96-well plate, and reacted at room temperature for 2 hours. After washing three times with phosphate-buffered saline (PBST) containing 0.05% Tween-20, 200 μL of PBST containing 5% bovine serum albumin (BSA) (BSA-PBST) was added, and reacted at room temperature for 2 hours. After washing three times with PBST, 100 μL of SDMA antibody and SmD3 antibody were diluted in BSA-PBST, each was dispensed, and reacted overnight at 4° C. After washing three times with PBST on next day, 100 μL of secondary antibody diluted in BSA-PBST was added, and reacted at room temperature for 1 hour. After washing three times with PBST, 100 μL of TMB substrate was added and reacted at room temperature for 10-20 minutes, and 100 μL of 1N sulfuric acid solution was added to terminate the reaction. Then, the degree of SDMA inhibition by the compound was calculated by measuring the absorbance at 450 nm.

For CN1CCC(Oc2ccc3c(c2)OCCN(C[C@H](O)CN2CCc4ccccc4C2)C3=O)CC1 [Compound-87, 4-[(2R)-3-(3,4-dihydro-1H-isoquinolin-2-yl)-2-hydroxy-propyl]-8-[(1-methyl-4-piperidyl)oxy]-2,3-dihydro-1,4-benzoxazepin-5-one], the “inhibition of cell viability, combination treatment compared to single agent” value [1] was “enhanced inhibition effects of cell viability”, the partial response ([2]; compound-87 50 mg/kg oral combined with cisplatin 4 mg/kg i.p., partial response in all mice) was 60.6% and the “tumor growth inhibition rate” value ([2]; compound-87 alone, 50 mg/kg oral, 3-day administration/4-day non-administration) was 62.0%. The “SDMA amount in tumor samples compared to the vehicle group” value ([3]; 25 mg/kg Compound-87, 3 days on/4 off for 24 days) was 37.4%, the “SDMA amount in tumor samples compared to the vehicle group” value ([3]; 50 mg/kg Compound-87, 3 days on/4 off for 24 days) was 27.7% and the inhibition at 25 mg/kg ([3]; Mus musculus, MIA PaCa-2, 25 mg/kg Compound-87, 3 days on/4 off for 24 days) was 62.6%. The inhibition at 50 mg/kg ([3]; Mus musculus, MIA PaCa-2, 50 mg/kg Compound-87, 3 days on/4 off for 24 days) was 72.3%.
